Data reported in patent publication US5075289A, “9-R-azacyclic erythromycin antibiotics” (priority 1988, dated 1991).
In brackets after ≈: the same amount, converted by molar mass.

Tests used:
Assay in all cases: In vitro antibacterial activity, agar dilution MIC
Assay type in all cases: cell-based
[1] = tested on: Haemophilus influenzae 1177; details: H. influenzae 1177
Method: (§1) The antimicrobial spectra of a number of compounds of the invention were tested by the following method:
(§2) Twelve petri dishes containing successive aqueous dilutions of the test compound mixed with 10 ml of sterilized Brain Heart Infusion agar (Difco 0418-01-5) are prepared. Each plate is inoculated with 1:100 (or 1:10 for slow growing strains, primarily Micrococcus and Streptococcus) dilutions of up to 32 different microorganisms, using a Steers replicator block The inoculated plates are incubated at 35°-37° C. for 20-24 hours. In addition, a control plate, using BHI agar containing no test compound, is prepared and incubated at the beginning and end of each test.
(§3) An additional plate containing a compound having known susceptibility patterns for the organisms being tested and belonging to the same antibiotic class as the test compound is also prepared and incubated as a further control, as well as to provide test-to-test comparability. Erythromycin A was used for this purpose.
(§4) After incubation, each disk is read. The MIC is defined as the lowest concentration of drug yielding no growth, a slight haze, or sparsely isolated colonies on the inoculum spot as compared to the growth control.

[2] = tested on: Haemophilus influenzae 1435; details: H. influenzae 1435
Method: as §1, §2, §3, §4

[3] = tested on: Haemophilus influenzae 503B; details: H. influenzae 503B
Method: as §1, §2, §3, §4

[4] = tested on: Haemophilus influenzae 504; details: H. influenzae 504
Method: as §1, §2, §3, §4

[5] = tested on: Haemophilus influenzae 519A; details: H. influenzae 519A
Method: as §1, §2, §3, §4

[6] = tested on: Haemophilus influenzae 566A; details: H. influenzae 566A
Method: as §1, §2, §3, §4

[7] = tested on: Haemophilus influenzae 588A; details: H. influenzae 588A
Method: as §1, §2, §3, §4

[8] = tested on: Haemophilus influenzae 632A; details: H. influenzae 632A
Method: as §1, §2, §3, §4

[9] = tested on: Haemophilus influenzae 667A; details: H. influenzae 667A
Method: as §1, §2, §3, §4

[10] = tested on: Haemophilus influenzae 747C; details: H. influenzae 747C
Method: as §1, §2, §3, §4

[11] = tested on: Haemophilus influenzae 751; details: H. influenzae 751
Method: as §1, §2, §3, §4

[12] = tested on: Haemophilus influenzae ATCC 10211; details: ATCC10211, H. influenzae ATCC 10211
Method: as §1, §2, §3, §4

[13] = tested on: Haemophilus influenzae ATCC 19418; details: ATCC19418, H. influenzae ATCC 19418
Method: as §1, §2, §3, §4

[14] = tested on: Haemophilus influenzae ATCC 9795; details: ATCC9795, H. influenzae ATCC 9795
Method: as §1, §2, §3, §4

[15] = tested on: Haemophilus influenzae DILL AMP R; details: H. influenzae DILL AMP R
Method: as §1, §2, §3, §4

[16] = tested on: Haemophilus influenzae SOL AMP R; details: H. influenzae SOL AMP R
Method: as §1, §2, §3, §4

[17] = tested on: Haemophilus influenzae SPK AMP R; details: H. influenzae SPK AMP R
Method: as §1, §2, §3, §4

Work on `CC[C@H]1OC(=O)[C@H](C)[C@@H](O[C@H]2C[C@@](C)(OC)[C@@H](O)[C@H](C)O2)[C@H](C)[C@@H](O[C@@H]2O[C@H](C)C[C@H](N(C)C)[C@H]2O)[C@](C)(O)C[C@@H](C)[C@@H](N2CCC(=O)CC2)[C@H](C)[C@@H](O)[C@]1(C)O` [Example 28] yielded an MIC [1] of 0.25 µg/mL (≈ 0.306 µM), an MIC [2] of 0.25 µg/mL (≈ 0.306 µM) and an MIC [3] of 0.25 µg/mL (≈ 0.306 µM). It also gave an MIC [4] of 1 µg/mL (≈ 1.22 µM), an MIC [5] of 0.25 µg/mL (≈ 0.306 µM) and an MIC [6] of 2 µg/mL (≈ 2.45 µM). It also gave an MIC [7] of 1 µg/mL (≈ 1.22 µM), an MIC [8] of 2 µg/mL (≈ 2.45 µM) and an MIC [9] of 1 µg/mL (≈ 1.22 µM). For the same molecule, the MIC [10] was 0.5 µg/mL (≈ 0.612 µM), the MIC [11] was 2 µg/mL (≈ 2.45 µM) and the MIC [12] was 5 µg/mL (≈ 6.12 µM). It also gave an MIC [13] of 1 µg/mL (≈ 1.22 µM), an MIC [14] of 1 µg/mL (≈ 1.22 µM) and an MIC [15] of 0.5 µg/mL (≈ 0.612 µM). The MIC [16] was 0.5 µg/mL (≈ 0.612 µM) and the MIC [17] was 0.5 µg/mL (≈ 0.612 µM).

Molecule `CC[C@H]1OC(=O)[C@H](C)[C@@H](O[C@H]2C[C@@](C)(OC)[C@@H](O)[C@H](C)O2)[C@H](C)[C@@H](O[C@@H]2O[C@H](C)C[C@H](N(C)C)[C@H]2O)[C@](C)(O)C[C@@H](C)[C@@H](N2CCC(OC)(OC)CC2)[C@H](C)[C@@H](O)[C@]1(C)O` [Example 27] has an MIC [1] of 0.06 µg/mL (≈ 0.0695 µM), an MIC [2] of 0.25 µg/mL (≈ 0.29 µM) and an MIC [3] of 1 µg/mL (≈ 1.16 µM). The MIC [4] was 1 µg/mL (≈ 1.16 µM), the MIC [5] was 0.25 µg/mL (≈ 0.29 µM) and the MIC [6] was 1 µg/mL (≈ 1.16 µM). For the same molecule, the MIC [7] was 1 µg/mL (≈ 1.16 µM), the MIC [8] was 1 µg/mL (≈ 1.16 µM) and the MIC [9] was 1 µg/mL (≈ 1.16 µM). For the same molecule, the MIC [10] was 1 µg/mL (≈ 1.16 µM), the MIC [11] was 2 µg/mL (≈ 2.32 µM) and the MIC [12] was 0.5 µg/mL (≈ 0.579 µM). It also gave an MIC [13] of 1 µg/mL (≈ 1.16 µM), an MIC [14] of 1 µg/mL (≈ 1.16 µM) and an MIC [15] of 0.5 µg/mL (≈ 0.579 µM). For the same molecule, the MIC [16] was 1 µg/mL (≈ 1.16 µM) and the MIC [17] was 1 µg/mL (≈ 1.16 µM).
